T/C data for twelve molecules are collected here from PubChem BioAssay AID328 (DTP/NCI, 2004).

Several values for one entry are separate records, joined by “and”; a condition that tells them apart may be missing. Equal entries are not always repeated. Inconclusive results and toxic doses are left out.

This assay has as its system BDF1 mice, P388 leukemia ip, median survival T/C. Put plainly: NCI In Vivo Anticancer Drug Screen. Data for tumor model P388 Leukemia (intraperitoneal) in B6D2F1 (BDF1) mice. The note with it: endpoint: median survival time, higher = longer survival. The gist of the method:
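Vehicle-dosed animals serve as the reference; survival of compound-dosed, tumour-implanted mice is divided by it.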

Where [1] appears, read: dose: 50.0 mg/kg/injection, schedule: Q01DX009 (ip), vehicle: saline with Tween-80.
The mark [2] stands for this setting: dose: 100.0 mg/kg/injection, schedule: Q01DX009 (ip), vehicle: saline with Tween-80.
The mark [3] stands for this setting: dose: 200.0 mg/kg/injection, schedule: Q01DX009 (ip), vehicle: saline with Tween-80.
Setting [4] is: dose: 100.0 mg/kg/injection, schedule: Q04DX003 (ip), vehicle: saline with Tween-80.

Turning to `O=P(N1CC1)(N1CC1)N1CCc2ccccc21`, the T/C (dose: 9.0 mg/kg/injection, schedule: Q01DX009 (ip), vehicle: saline) is 91 % of control; the T/C (dose: 13.0 mg/kg/injection, schedule: Q01DX009 (ip), vehicle: saline) was 104 % of control; the T/C (dose: 20.0 mg/kg/injection, schedule: Q01DX009 (ip), vehicle: saline) was 104 % of control; the T/C (dose: 30.0 mg/kg/injection, schedule: Q04DX003 (ip), vehicle: saline) is 114 % of control; the T/C (dose: 33.0 mg/kg/injection, schedule: Q01DX009 (ip), vehicle: saline) was 157 % of control; the T/C (dose: 44.0 mg/kg/injection, schedule: Q04DX003 (ip), vehicle: saline) is 117 % of control and 119 % of control. Further, the T/C runs as follows: (dose: 50.0 mg/kg/injection, schedule: Q01DX009 (ip), vehicle: saline) 166 % of control and 173 % of control; (dose: 75.0 mg/kg/injection, schedule: Q01DX009 (ip), vehicle: saline) 176 % of control; (dose: 100.0 mg/kg/injection, schedule: Q04DX003 (ip), vehicle: saline) 170 % of control and 176 % of control; (dose: 150.0 mg/kg/injection, schedule: Q04DX003 (ip), vehicle: saline) 255 % of control and 195 % of control; (dose: 200.0 mg/kg/injection, schedule: Q04DX003 (ip), vehicle: saline) 96 % of control.
`COc1cccc2c1C(=O)c1c(O)c3c(c(O)c1C2=O)C[C@@](O)(C(=O)COC(=O)Cc1ccccc1)C[C@@H]3OC1CC(N)C(O)C(C)O1` (some centres undefined): the T/C by setting is: (dose: 1.3 mg/kg/injection, schedule: Q01DX009 (ip), vehicle: saline) 162 % of control; (dose: 2.0 mg/kg/injection, schedule: Q01DX009 (ip), vehicle: saline) 200 % of control.
For the molecule `NC(C/[N+]([O-])=N/O)C(=O)O` (centres undefined), the T/C is 118 % of control (dose: 15.6 mg/kg/injection, schedule: Q04DX003 (ip), vehicle: saline); 118 % of control (dose: 15.6 mg/kg/injection, schedule: Q04DX003 (ip), vehicle: water); 150 % of control (dose: 25.0 mg/kg/injection, schedule: Q01DX010 (ip), vehicle: other); 122 % of control (dose: 25.0 mg/kg/injection, schedule: Q01DX010 (ip), vehicle: saline); 122 % of control (dose: 31.3 mg/kg/injection, schedule: Q04DX003 (ip), vehicle: saline); 150 % of control (dose: 50.0 mg/kg/injection, schedule: Q01DX010 (ip), vehicle: other). For the same molecule, the T/C was 165 % of control (dose: 100.0 mg/kg/injection, schedule: Q01DX010 (ip), vehicle: other); 168 % of control (dose: 125.0 mg/kg/injection, schedule: Q04DX003 (ip), vehicle: water); 161 % of control and 171 % of control (dose: 173.0 mg/kg/injection, schedule: Q04DX003 (ip), vehicle: sodium bicarbonate); 100 % of control (dose: 200.0 mg/kg/injection, schedule: Q01DX010 (ip), vehicle: saline); 172 % of control (dose: 250.0 mg/kg/injection, schedule: Q04DX003 (ip), vehicle: saline); 181 % of control (dose: 250.0 mg/kg/injection, schedule: Q04DX003 (ip), vehicle: water). The T/C is 161 % of control and 172 % of control (dose: 288.0 mg/kg/injection, schedule: Q04DX003 (ip), vehicle: sodium bicarbonate); 190 % of control and 192 % of control (dose: 480.0 mg/kg/injection, schedule: Q04DX003 (ip), vehicle: sodium bicarbonate); 181 % of control (dose: 500.0 mg/kg/injection, schedule: Q04DX003 (ip), vehicle: saline); 177 % of control (dose: 500.0 mg/kg/injection, schedule: Q04DX003 (ip), vehicle: water); 116 % of control (dose: 800.0 mg/kg/injection, schedule: Q04DX003 (ip), vehicle: sodium bicarbonate).
`Cc1cc(=O)[nH]o1`: the T/C by setting is: under setting [1], 108 % of control; under setting [2], 103 % of control; under setting [3], 103 % of control; (dose: 400.0 mg/kg/injection, schedule: Q01DX009 (ip), vehicle: saline with Tween-80) 113 % of control.
Take `Cc1ccc(N=Cc2ccccc2)cc1`: the T/C (dose: 100.0 mg/kg/injection, schedule: Q01DX009 (ip), vehicle: Klucel (hydroxypropylcellulose) (HPC)) is 95 % of control; the T/C (dose: 100.0 mg/kg/injection, schedule: Q04DX003 (ip), vehicle: Klucel (hydroxypropylcellulose) (HPC)) was 100 % of control; the T/C (dose: 200.0 mg/kg/injection, schedule: Q01DX009 (ip), vehicle: Klucel (hydroxypropylcellulose) (HPC)) was 100 % of control; the T/C (dose: 200.0 mg/kg/injection, schedule: Q04DX003 (ip), vehicle: Klucel (hydroxypropylcellulose) (HPC)) was 108 % of control; the T/C (dose: 400.0 mg/kg/injection, schedule: Q01DX009 (ip), vehicle: Klucel (hydroxypropylcellulose) (HPC)) was 90 % of control; the T/C (dose: 400.0 mg/kg/injection, schedule: Q04DX003 (ip), vehicle: Klucel (hydroxypropylcellulose) (HPC)) is 108 % of control.
For the molecule `CC(=O)Nc1ncnc2n[nH]c(C#N)c12`, the T/C (dose: 12.5 mg/kg/injection, schedule: Q04DX003 (ip), vehicle: saline with Tween-80) was 117 % of control; the T/C (dose: 25.0 mg/kg/injection, schedule: Q04DX003 (ip), vehicle: saline with Tween-80) was 95 % of control; the T/C (dose: 50.0 mg/kg/injection, schedule: Q04DX003 (ip), vehicle: saline with Tween-80) was 104 % of control; the T/C under setting [4] was 106 % of control.
Take `CCOC(=O)/C(C#N)=C/C=C1C=CN(C)C=C1`: the T/C reads like this: under setting [1], 86 % of control; under setting [2], 105 % of control; under setting [3], 116 % of control.
As for `FC(F)(F)c1nc2nc(Br)c(Br)nc2[nH]1`, the T/C reads like this: under setting [2], 100 % of control; under setting [4], 87 % of control; under setting [3], 90 % of control; (dose: 400.0 mg/kg/injection, schedule: Q04DX003 (ip), vehicle: saline with Tween-80) 91 % of control.
With `CCC(SC(CC(=O)O)C(=O)O)C(=O)O` (centres undefined), the T/C is 100 % of control (dose: 12.5 mg/kg/injection, schedule: Q01DX001 (ip), vehicle: saline with Tween-80); 99 % of control (dose: 25.0 mg/kg/injection, schedule: Q01DX001 (ip), vehicle: saline with Tween-80); 90 % of control (dose: 50.0 mg/kg/injection, schedule: Q01DX001 (ip), vehicle: saline with Tween-80).
Turning to `COC(=O)C12OCC34C(CC5=C(C)C(=O)C(O)=CC5(C)C3C(O)C1O)OC(=O)C(OC(=O)/C=C(\C)C(C)C)C24` (centres undefined), the T/C runs as follows: (dose: 31.0 micrograms/kg/injection, schedule: Q01DX009 (ip), vehicle: saline + alcohol) 120 % of control; (dose: 62.0 micrograms/kg/injection, schedule: Q01DX009 (ip), vehicle: saline + alcohol) 115 % of control; (dose: 250.0 micrograms/kg/injection, schedule: Q01DX009 (ip), vehicle: saline + alcohol) 100 % of control; (dose: 500.0 micrograms/kg/injection, schedule: Q01DX009 (ip), vehicle: saline + alcohol) 105 % of control; (dose: 1000.0 micrograms/kg/injection, schedule: Q01DX009 (ip), vehicle: saline + alcohol) 120 % of control; (dose: 2000.0 micrograms/kg/injection, schedule: Q01DX009 (ip), vehicle: saline + alcohol) 110 % of control.
`NC(CS/C(Cl)=C/Cl)C(=O)O` (centres undefined): the T/C is, setting by setting: (dose: 1.5 mg/kg/injection, schedule: Q01DX009 (ip), vehicle: saline) 95 % of control; (dose: 3.0 mg/kg/injection, schedule: Q01DX009 (ip), vehicle: saline) 100 % of control and 109 % of control; (dose: 6.0 mg/kg/injection, schedule: Q01DX009 (ip), vehicle: saline) 92 % of control and 95 % of control; (dose: 7.4 mg/kg/injection, schedule: Q01DX009 (ip), vehicle: saline) 109 % of control; (dose: 11.0 mg/kg/injection, schedule: Q01DX009 (ip), vehicle: saline) 113 % of control; (dose: 12.0 mg/kg/injection, schedule: Q01DX009 (ip), vehicle: saline) 90 % of control. Also, the T/C was 120 % of control (dose: 16.0 mg/kg/injection, schedule: Q04DX003 (ip), vehicle: saline); 152 % of control (dose: 17.0 mg/kg/injection, schedule: Q01DX009 (ip), vehicle: saline); 120 % of control (dose: 25.0 mg/kg/injection, schedule: Q04DX003 (ip), vehicle: saline); 168 % of control (dose: 27.0 mg/kg/injection, schedule: Q01DX009 (ip), vehicle: saline); 104 % of control (dose: 35.0 mg/kg/injection, schedule: Q04DX003 (ip), vehicle: saline).
In the case of `Cc1cc(C)c(NS(=O)(=O)c2ccc([N+](=O)[O-])cc2)c(C)c1`, the T/C is 100 % of control (dose: 75.0 mg/kg/injection, schedule: Q01DX001 (ip), vehicle: saline with Tween-80); 90 % of control (dose: 150.0 mg/kg/injection, schedule: Q01DX001 (ip), vehicle: saline with Tween-80); 100 % of control (dose: 300.0 mg/kg/injection, schedule: Q01DX001 (ip), vehicle: saline with Tween-80).
